In PMC10720538, “Population pharmacokinetic modeling and target attainment analyses of rezafungin for the treatment of candidemia and invasive candidiasis” (Antimicrobial Agents and Chemotherapy, 2023):
*1 amine or outer side, *2 acyl side, *3 side chain or, on linkers, in order; H or OH if unused. Where a SMILES comes first, the peptide text is derived from it. Bridges are numbered along the chain shown (N, C = ends). [ ]: non-standard residue; d: D form. The star is where a group is joined. Orn(4R-OH,5R-OCH2CH2NMe3+) = C[N+](C)(C)CCO[C@@H](N[*:3])[C@H](O)C[C@H](N[*:1])C(=O)[*:2]; pTerphenylCO(4''-OnC5H11) = CCCCCOc1ccc(-c2ccc(-c3ccc(C(=O)*)cc3)cc2)cc1; hTyr(3S-OH,4S-OH) = N[C@H](C(=O)O)[C@H](O)[C@@H](O)c1ccc(O)cc1; Pro(3S-OH,4S-Me) = C[C@H]1CN[C@H](C(=O)O)[C@H]1O; Hyp = O=C(O)[C@@H]1C[C@@H](O)CN1

What was measured:
Candida parapsilosis = details: ref Lepak et al., 2018 (e02154-17), cited from earlier work
Experimental: TABLE 4 Nonclinical pharmacokinetic/pharmacodynamic targets, by species^a^,^b^,^c | column: Method; Stasis / fAUC0–168h/MIC median || FIG 4 Probability of pharmacokinetic/pharmacodynamic target attainment for 400 mg rezafungin against Candida species using CLSI methodology. f, free. […] This has been observed for other echinocandins and appears to be limited to nonclinical testing as C. parapsilosis responds well clinically to echinocandin therapy despite the intrinsically elevated MICs of this species ([29]). It is believed that the C. parapsilosis strains utilized in the model (more than 80% of which were not suitable) are highly fit or virulent and therefore may result in elevated targets ([30]).

[1] = Simulated exposure measures after a single 400 mg dose from individual Bayesian PK estimates, with forest plots of covariate effects; assay type: in vivo, human; details: for Half-life: from simulated concentrations during week 2 after the last dose; for Clearance: individual model-based estimates (CL); for AUC0–168h / Cmax / Cmin, 168h: single 400 mg IV dose, simulated; for Total volume of distribution at steady state: sum of individual model-based central and peripheral volumes
Experimental: To illustrate the relative differences in the impact of the covariates included in the final model on the exposure of rezafungin, forest plots were constructed using simulated exposure for the subjects in the analysis data set, following a single dose of 400 mg. […] Though statistically significant and included in the final model, the GMR rezafungin exposure and 90% CI of each covariate effect were not far outside of the default no effect bounds of 0.8 and 1.25.
Age was not determined to be a significant covariate of rezafungin exposure. Sixty-three patients were aged 65 years or older, with the oldest patient being […]. Thirty-eight patients were aged 65 to <75, and 25 patients were aged 75 to 89 years old. The GMR (90% CI) of AUC0–168h of these two age groups were 0.95 (0.85, 1.05) and 1.20 (1.06, 1.36), respectively, compared to patients 24 to <65 years old (n = 104). The change in exposure in patients 65 years or older is not deemed clinically meaningful.
The final PK model of rezafungin, the individual empirical Bayesian PK parameter estimates, and the individual dosing histories were used to simulate dense PK profiles for each subject using the R package mrgsolve ([33]).

[2] = cited from earlier work
Experimental: FIG 4 Probability of pharmacokinetic/pharmacodynamic target attainment for 400 mg rezafungin against Candida species using CLSI methodology. f, free. TEXT PRINTED IN THE PICTURE: no label printed: Candida albicans − fAUC/MIC Targets: CLSI Target: Stasis 20.5; Candida albicans − fAUC/MIC Targets: CLSI Target: 1-Log Drop in CFU 37.2; Candida glabrata − fAUC/MIC Targets: CLSI Target: Stasis 0.5; Candida glabrata − fAUC/MIC Targets: CLSI Target: 1-Log Drop in CFU 2.94; Candida parapsilosis − fAUC/MIC Targets: CLSI Target: Stasis 18.2; Candida auris − fAUC/MIC Targets: CLSI Target: Stasis 12.1; Can ... || It is noted that the target attainment (TA) methodology uses the simulated fAUC0–168h/MIC ratios; therefore, the value of plasma protein binding (PPB) influences this analysis. The free fraction of rezafungin used in the analysis was 2.6%, obtained from measuring PPB in plasma from healthy subjects. […] While there are still questions in the scientific community about how to verify information from the nonclinical model to support PK/PD-b ... || Using each simulated patient’s Bayesian PK parameters and dose amounts, simulations were performed to obtain plasma concentration profiles. […] For the purposes of target attainment analyses, AUC0–168h after the first dose was used (day 1). […]

[3] = healthy subjects, n = 94, geometric mean (geometric %CV)
[4] = healthy subjects, n = 94, mean (SD), SD
[5] = hepatic impairment, uninfected, n = 16, geometric mean (geometric %CV)
[6] = hepatic impairment, uninfected, n = 16, mean (SD), SD
[7] = patients, n = 167, geometric mean (geometric %CV)
[8] = patients, n = 167, mean (SD), SD

CCCCCOc1ccc(-c2ccc(-c3ccc(C(=O)N[C@H]4C[C@@H](O)[C@@H](OCC[N+](C)(C)C)NC(=O)[C@@H]5[C@@H](O)[C@@H](C)CN5C(=O)[C@H]([C@@H](C)O)NC(=O)[C@H]([C@H](O)[C@@H](O)c5ccc(O)cc5)NC(=O)[C@@H]5C[C@@H](O)CN5C(=O)[C@H]([C@@H](C)O)NC4=O)cc3)cc2)cc1 [rezafungin] ({pTerphenylCO(4''-OnC5H11)}-[Orn(4R-OH,5R-OCH2CH2NMe3+)]T[Hyp][hTyr(3S-OH,4S-OH)]T[Pro(3S-OH,4S-Me)]; lactam 1-C)
Stasis, fAUC0–168h/MIC median (Candida parapsilosis; CLSI MIC, net fungal stasis, neutropenic mouse): 18.2
maximum effect (Candida parapsilosis; nonclinical model): only achieved stasis
Half-life [1, 3]: 143.368 (9.737) h
Half-life [1, 4]: 144.039 (14.027) h
Half-life [1, 5]: 132.827 (9.457) h
Half-life [1, 6]: 133.372 (12.249) h
Half-life [1, 7]: 149.458 (18.095) h
Half-life [1, 8]: 151.960 (29.086) h
Clearance [1, 3]: 0.229 (20.266) L/h
Clearance [1, 4]: 0.234 (0.048) L/h
Clearance [1, 5]: 0.336 (21.829) L/h
Clearance [1, 6]: 0.343 (0.077) L/h
Clearance [1, 7]: 0.328 (38.396) L/h
Clearance [1, 8]: 0.350 (0.130) L/h
AUC0–168h [1, 3]: 1,070.513 (20.149) μg × h/mL
Cmax [1, 3]: 21.725 (22.466) μg/mL
Cmin, 168h [1, 3]: 3.247 (22.858) μg/mL
AUC0–168h [1, 4]: 1,091.512 (215.164) μg × h/mL
Cmax [1, 4]: 22.244 (4.789) μg/mL
Cmin, 168h [1, 4]: 3.329 (0.741) μg/mL
AUC0–168h [1, 5]: 778.250 (19.012) μg × h/mL
Cmax [1, 5]: 17.061 (16.797) μg/mL
Cmin, 168h [1, 5]: 2.113 (25.916) μg/mL
AUC0–168h [1, 6]: 791.452 (152.248) μg × h/mL
Cmax [1, 6]: 17.291 (3.017) μg/mL
Cmin, 168h [1, 6]: 2.176 (0.533) μg/mL
AUC0–168h [1, 7]: 752.507 (35.100) μg × h/mL
Cmax [1, 7]: 17.715 (35.418) μg/mL
Cmin, 168h [1, 7]: 2.097 (43.351) μg/mL
AUC0–168h [1, 8]: 798.607 (295.120) μg × h/mL
Cmax [1, 8]: 18.761 (6.448) μg/mL
Cmin, 168h [1, 8]: 2.292 (1.072) μg/mL
Fold change in AUC0-168h relative to reference, GMR (90% CI) ([1]; single 400 mg dose, Phase 2/3 patients, BMI obese (≥30 kg/m^2), n = 36, vs optimum BMI): 0.77 (0.69, 0.86)
Fold change in AUC0-168h relative to reference, GMR (90% CI) ([1]; single 400 mg dose, Phase 2/3 patients, BMI overweight (25 to <30 kg/m^2), n = 40, vs optimum BMI): 0.84 (0.75, 0.94)
Fold change in AUC0-168h relative to reference, GMR (90% CI) ([1]; single 400 mg dose, Phase 2/3 patients, BMI underweight (<18.5 kg/m^2), n = 17, vs optimum BMI): 1.03 (0.88, 1.20)
Fold change in AUC0-168h relative to reference, GMR (90% CI) ([1]; single 400 mg dose, Phase 2/3 patients, age (y) [65,75), n = 38, vs 24 to <65 years): 0.95 (0.85, 1.05)
Fold change in AUC0-168h relative to reference, GMR (90% CI) ([1]; single 400 mg dose, Phase 2/3 patients, age (y) [75,89], n = 25, vs 24 to <65 years): 1.20 (1.06, 1.36)
higher AUC0–168h in female subjects ([1]; single 400 mg dose, Phase 2/3 patients, female vs male): 21%
Fold change in AUC0-168h relative to reference, GMR (90% CI) ([1]; single 400 mg dose, Phase 2/3 patients, kidney failure (CrCL <15 mL/min) vs normal renal function): 1.16 (0.96, 1.39)
Fold change in AUC0-168h relative to reference, GMR (90% CI) ([1]; single 400 mg dose, Phase 2/3 patients, mild renal impairment (CrCL 60 to 89 mL/min) vs normal renal function): 0.95 (0.85, 1.06)
Fold change in AUC0-168h relative to reference, GMR (90% CI) ([1]; single 400 mg dose, Phase 2/3 patients, moderate renal impairment (CrCL 30 to 59 mL/min) vs normal renal function): 1.23 (1.11, 1.36)
Fold change in AUC0-168h relative to reference, GMR (90% CI) ([1]; single 400 mg dose, Phase 2/3 patients, severe renal impairment (CrCL 15 to 29 mL/min) vs normal renal function): 1.01 (0.88, 1.16)
Total volume of distribution at steady state [1, 3]: 42.312 (22.744) L
Total volume of distribution at steady state [1, 4]: 43.410 (10.265) L
Total volume of distribution at steady state [1, 5]: 56.279 (19.744) L
Total volume of distribution at steady state [1, 6]: 57.264 (10.702) L
Total volume of distribution at steady state [1, 7]: 62.434 (40.964) L
Total volume of distribution at steady state [1, 8]: 67.451 (27.744) L
Protein binding ([2]; human (presumed healthy) plasma): 97.4%
free fraction ([2]; plasma from healthy subjects, used to calculate fAUC0–168h): 2.6%
